According to the supplement of paper PMC10307832:

Assays:
Test in all cases: relative viability (nuclei count vs DMSO), 5 days (fraction); higher = more cells survive
NCI-H2009 = test system: NCI-H2009
In short: (§1)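 Lung cancer cell lines were seeded in 1536-well plates and dosed by pin tool the next day, with either a single drug or a fixed anchor-drug dose combined with five library-drug doses (not always all listed) spaced in √10 steps. Five days later, one step fixed the cells and stained their nuclei (final 0.05% Triton X-100, 1% formaldehyde, 1 ug/ml Hoechst), and nuclei were counted on 4× images. Relative viability is the nuclei count in treated wells divided by the count in vehicle wells, and each value is the median of duplicate plates.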

COR-L23 = test system: COR-L23
In short: as §1

HCC-827 = test system: HCC-827
In short: as §1

LC-2-ad = test system: LC-2-ad
In short: as §1

UMC-11 = test system: UMC-11
In short: as §1

NCI-H1437 = test system: NCI-H1437
In short: as §1

PC-3 [JPC-3] = test system: PC-3 [JPC-3]
In short: as §1

PC-14 = test system: PC-14
In short: as §1

NCI-H23 = test system: NCI-H23
In short: as §1

NCI-H2085 = test system: NCI-H2085
In short: as §1

H3255 = test system: H3255
In short: as §1

NCI-H2087 = test system: NCI-H2087
In short: as §1

HCC-15 = test system: HCC-15
In short: as §1

HCC-366 = test system: HCC-366
In short: as §1

SK-MES-1 = test system: SK-MES-1
In short: as §1

NCI-H1975 = test system: NCI-H1975
In short: as §1

NCI-H2228 = test system: NCI-H2228
In short: as §1

NCI-H1666 = test system: NCI-H1666
In short: as §1

LXF-289 = test system: LXF-289
In short: as §1

Compound: CN1CCN(CCOc2cc(OC3CCOCC3)c3c(Nc4c(Cl)ccc5c4OCO5)ncnc3c2)CC1 [Saracatinib] + CC1(C)CCC(c2ccc(Cl)cc2)=C(CN2CCN(c3ccc(C(=O)NS(=O)(=O)c4ccc(N[C@H](CCN5CCOCC5)CSc5ccccc5)c(S(=O)(=O)C(F)(F)F)c4)cc3)CC2)C1 [Navitoclax] (partner 0.5 µM)
- relative viability (NCI-H2009; first compound 0.02 µM): 1.15
- relative viability (NCI-H2009; first compound 0.2 µM): 1.07
- relative viability (NCI-H2009; first compound 0.6325 µM): 1.15
- relative viability (NCI-H2009; first compound 2 µM): 1.16
- relative viability (COR-L23; first compound 0.02 µM): 1.1
- relative viability (COR-L23; first compound 0.2 µM): 0.966
- relative viability (COR-L23; first compound 0.6325 µM): 0.923
- relative viability (COR-L23; first compound 2 µM): 0.933
- relative viability (HCC-827; first compound 0.02 µM): 0.979
- relative viability (HCC-827; first compound 0.2 µM): 0.808
- relative viability (HCC-827; first compound 0.6325 µM): 0.368
- relative viability (HCC-827; first compound 2 µM): 0.137
- relative viability (LC-2-ad; first compound 0.02 µM): 0.453
- relative viability (LC-2-ad; first compound 0.6325 µM): 0.448
- relative viability (LC-2-ad; first compound 2 µM): 0.348
- relative viability (UMC-11; first compound 0.02 µM): 0.318
- relative viability (UMC-11; first compound 0.6325 µM): 0.295
- relative viability (UMC-11; first compound 2 µM): 0.267
- relative viability (NCI-H1437; first compound 0.02 µM): 1.11
- relative viability (NCI-H1437; first compound 0.2 µM): 1.12
- relative viability (NCI-H1437; first compound 0.6325 µM): 1.11
- relative viability (NCI-H1437; first compound 2 µM): 1.03
- relative viability (PC-3 [JPC-3]; first compound 0.02 µM): 0.806
- relative viability (PC-3 [JPC-3]; first compound 0.2 µM): 0.754
- relative viability (PC-3 [JPC-3]; first compound 0.6325 µM): 0.726
- relative viability (PC-3 [JPC-3]; first compound 2 µM): 0.508
- relative viability (PC-14; first compound 0.02 µM): 1.01
- relative viability (PC-14; first compound 0.2 µM): 1.01
- relative viability (PC-14; first compound 0.6325 µM): 0.417
- relative viability (PC-14; first compound 2 µM): 0.198
- relative viability (NCI-H23; first compound 0.02 µM): 0.815
- relative viability (NCI-H23; first compound 0.6325 µM): 0.847
- relative viability (NCI-H23; first compound 2 µM): 0.52
- relative viability (NCI-H2085; first compound 0.02 µM): 1.12
- relative viability (NCI-H2085; first compound 0.2 µM): 1.05
- relative viability (NCI-H2085; first compound 0.6325 µM): 1.19
- relative viability (NCI-H2085; first compound 2 µM): 1.07
- relative viability (H3255; first compound 0.02 µM): 0.515
- relative viability (H3255; first compound 0.2 µM): 0.393
- relative viability (H3255; first compound 0.6325 µM): 0.302
- relative viability (H3255; first compound 2 µM): 0.0997
- relative viability (NCI-H2087; first compound 0.02 µM): 1.03
- relative viability (NCI-H2087; first compound 0.2 µM): 1.04
- relative viability (NCI-H2087; first compound 0.6325 µM): 1.14
- relative viability (NCI-H2087; first compound 2 µM): 1.05
- relative viability (HCC-15; first compound 0.02 µM): 0.655
- relative viability (HCC-15; first compound 0.2 µM): 0.545
- relative viability (HCC-15; first compound 0.6325 µM): 0.65
- relative viability (HCC-15; first compound 2 µM): 0.558
- relative viability (HCC-366; first compound 0.02 µM): 1.03
- relative viability (HCC-366; first compound 0.6325 µM): 1.08
- relative viability (HCC-366; first compound 2 µM): 0.7
- relative viability (SK-MES-1; first compound 0.02 µM): 1.24
- relative viability (SK-MES-1; first compound 0.2 µM): 1.16
- relative viability (SK-MES-1; first compound 0.6325 µM): 1.21
- relative viability (SK-MES-1; first compound 2 µM): 0.727
- relative viability (NCI-H1975; first compound 0.02 µM): 1.17
- relative viability (NCI-H1975; first compound 0.6325 µM): 1.06
- relative viability (NCI-H1975; first compound 2 µM): 0.749
- relative viability (NCI-H2228; first compound 0.02 µM): 1.29
- relative viability (NCI-H2228; first compound 0.2 µM): 0.831
- relative viability (NCI-H2228; first compound 0.6325 µM): 1.24
- relative viability (NCI-H2228; first compound 2 µM): 0.459
- relative viability (NCI-H1666; first compound 0.02 µM): 1.04
- relative viability (NCI-H1666; first compound 0.2 µM): 0.928
- relative viability (NCI-H1666; first compound 0.6325 µM): 1.06
- relative viability (NCI-H1666; first compound 2 µM): 0.667
- relative viability (LXF-289; first compound 0.02 µM): 0.979
- relative viability (LXF-289; first compound 0.2 µM): 0.846
- relative viability (LXF-289; first compound 0.6325 µM): 0.993
- relative viability (LXF-289; first compound 2 µM): 0.964

Compound: Cc1csc(=NC2CCCCC2)n1/N=C/c1ccc(O)c(O)c1O [MIM1] + CC1(C)CCC(c2ccc(Cl)cc2)=C(CN2CCN(c3ccc(C(=O)NS(=O)(=O)c4ccc(N[C@H](CCN5CCOCC5)CSc5ccccc5)c(S(=O)(=O)C(F)(F)F)c4)cc3)CC2)C1 [Navitoclax] (partner 0.5 µM)
- relative viability (NCI-H2009; first compound 0.2 µM): 1.14
- relative viability (NCI-H2009; first compound 0.6325 µM): 1.19
- relative viability (NCI-H2009; first compound 2 µM): 1.22
- relative viability (NCI-H2009; first compound 6.325 µM): 0.999
- relative viability (NCI-H2009; first compound 20 µM): 0.826
- relative viability (COR-L23; first compound 0.2 µM): 0.966
- relative viability (COR-L23; first compound 0.6325 µM): 1.08
- relative viability (COR-L23; first compound 2 µM): 0.997
- relative viability (COR-L23; first compound 6.325 µM): 0.774
- relative viability (COR-L23; first compound 20 µM): 0.515
- relative viability (HCC-827; first compound 0.2 µM): 0.961
- relative viability (HCC-827; first compound 0.6325 µM): 1.01
- relative viability (HCC-827; first compound 2 µM): 0.977
- relative viability (HCC-827; first compound 6.325 µM): 0.39
- relative viability (HCC-827; first compound 20 µM): 0.696
- relative viability (LC-2-ad; first compound 0.2 µM): 0.491
- relative viability (LC-2-ad; first compound 0.6325 µM): 0.516
- relative viability (LC-2-ad; first compound 2 µM): 0.498
- relative viability (LC-2-ad; first compound 6.325 µM): 0.251
- relative viability (LC-2-ad; first compound 20 µM): 0.135
- relative viability (UMC-11; first compound 0.2 µM): 0.32
- relative viability (UMC-11; first compound 0.6325 µM): 0.298
- relative viability (UMC-11; first compound 2 µM): 0.36
- relative viability (UMC-11; first compound 6.325 µM): 0.208
- relative viability (UMC-11; first compound 20 µM): 0.145
- relative viability (NCI-H1437; first compound 0.2 µM): 0.989
- relative viability (NCI-H1437; first compound 0.6325 µM): 1.1
- relative viability (NCI-H1437; first compound 2 µM): 0.998
- relative viability (NCI-H1437; first compound 6.325 µM): 0.654
- relative viability (NCI-H1437; first compound 20 µM): 0.27
- relative viability (PC-3 [JPC-3]; first compound 0.2 µM): 0.821
- relative viability (PC-3 [JPC-3]; first compound 0.6325 µM): 0.682
- relative viability (PC-3 [JPC-3]; first compound 2 µM): 0.897
- relative viability (PC-3 [JPC-3]; first compound 6.325 µM): 0.696
- relative viability (PC-3 [JPC-3]; first compound 20 µM): 0.531
- relative viability (PC-14; first compound 0.2 µM): 1.02
- relative viability (PC-14; first compound 0.6325 µM): 1.03
- relative viability (PC-14; first compound 2 µM): 0.988
- relative viability (PC-14; first compound 6.325 µM): 0.894
- relative viability (PC-14; first compound 20 µM): 0.133
- relative viability (NCI-H23; first compound 0.2 µM): 0.631
- relative viability (NCI-H23; first compound 2 µM): 0.632
- relative viability (NCI-H23; first compound 6.325 µM): 0.934
- relative viability (NCI-H23; first compound 20 µM): 0.242
- relative viability (NCI-H2085; first compound 0.2 µM): 1.17
- relative viability (NCI-H2085; first compound 0.6325 µM): 1.08
- relative viability (NCI-H2085; first compound 2 µM): 1.12
- relative viability (NCI-H2085; first compound 6.325 µM): 1.02
- relative viability (NCI-H2085; first compound 20 µM): 1.01
- relative viability (H3255; first compound 0.2 µM): 0.561
- relative viability (H3255; first compound 0.6325 µM): 0.557
- relative viability (H3255; first compound 2 µM): 0.467
- relative viability (H3255; first compound 6.325 µM): 0.413
- relative viability (H3255; first compound 20 µM): 0.198
- relative viability (NCI-H2087; first compound 0.2 µM): 1.05
- relative viability (NCI-H2087; first compound 0.6325 µM): 0.921
- relative viability (NCI-H2087; first compound 2 µM): 1.03
- relative viability (NCI-H2087; first compound 6.325 µM): 0.928
- relative viability (NCI-H2087; first compound 20 µM): 0.382
- relative viability (HCC-15; first compound 0.2 µM): 0.682
- relative viability (HCC-15; first compound 0.6325 µM): 0.693
- relative viability (HCC-15; first compound 2 µM): 0.689
- relative viability (HCC-15; first compound 6.325 µM): 0.42
- relative viability (HCC-15; first compound 20 µM): 0.382
- relative viability (HCC-366; first compound 0.2 µM): 1.06
- relative viability (HCC-366; first compound 0.6325 µM): 0.943
- relative viability (HCC-366; first compound 2 µM): 0.809
- relative viability (HCC-366; first compound 6.325 µM): 1
- relative viability (HCC-366; first compound 20 µM): 0.0645
- relative viability (SK-MES-1; first compound 0.2 µM): 1.29
- relative viability (SK-MES-1; first compound 0.6325 µM): 1.26
- relative viability (SK-MES-1; first compound 2 µM): 1.28
- relative viability (SK-MES-1; first compound 6.325 µM): 0.939
- relative viability (SK-MES-1; first compound 20 µM): 0.795
- relative viability (NCI-H1975; first compound 0.2 µM): 1.16
- relative viability (NCI-H1975; first compound 0.6325 µM): 1.23
- relative viability (NCI-H1975; first compound 2 µM): 1.04
- relative viability (NCI-H1975; first compound 6.325 µM): 0.732
- relative viability (NCI-H1975; first compound 20 µM): 0.761
- relative viability (NCI-H2228; first compound 0.2 µM): 0.959
- relative viability (NCI-H2228; first compound 0.6325 µM): 0.916
- relative viability (NCI-H2228; first compound 2 µM): 0.874
- relative viability (NCI-H2228; first compound 6.325 µM): 0.274
- relative viability (NCI-H2228; first compound 20 µM): 0.157
- relative viability (NCI-H1666; first compound 0.2 µM): 1
- relative viability (NCI-H1666; first compound 0.6325 µM): 1.15
- relative viability (NCI-H1666; first compound 2 µM): 1.11
- relative viability (NCI-H1666; first compound 6.325 µM): 0.727
- relative viability (NCI-H1666; first compound 20 µM): 0.667
- relative viability (LXF-289; first compound 0.2 µM): 0.921
- relative viability (LXF-289; first compound 0.6325 µM): 0.939
- relative viability (LXF-289; first compound 2 µM): 0.921
- relative viability (LXF-289; first compound 6.325 µM): 0.768
- relative viability (LXF-289; first compound 20 µM): 0.487
